Laboratory results as given in ChEMBL document CHEMBL5579841, “Structure-based development of novel substrate-type G9a inhibitors as epigenetic modulators for sickle cell disease treatment” (Bioorg Med Chem Lett, 2024).
Converted amounts (≈) assume the structure as drawn. The source made the active and inactive calls. The calls are words filed in the database; no cut-off is given here.

Assays:
[1] = Permeability of compound by PAMPA; format: ADME; conditions: read-out: permeability
[2] = Aqueous solubility of compound at pH 7.4; format: physicochemical
[3] = biological target: T1, Histone-lysine N-methyltransferase EHMT2 (Homo sapiens, UniProt Q96KQ7); assay: Inhibition of G9a (unknown origin)
T1 sequence (Q96KQ7 whole entry): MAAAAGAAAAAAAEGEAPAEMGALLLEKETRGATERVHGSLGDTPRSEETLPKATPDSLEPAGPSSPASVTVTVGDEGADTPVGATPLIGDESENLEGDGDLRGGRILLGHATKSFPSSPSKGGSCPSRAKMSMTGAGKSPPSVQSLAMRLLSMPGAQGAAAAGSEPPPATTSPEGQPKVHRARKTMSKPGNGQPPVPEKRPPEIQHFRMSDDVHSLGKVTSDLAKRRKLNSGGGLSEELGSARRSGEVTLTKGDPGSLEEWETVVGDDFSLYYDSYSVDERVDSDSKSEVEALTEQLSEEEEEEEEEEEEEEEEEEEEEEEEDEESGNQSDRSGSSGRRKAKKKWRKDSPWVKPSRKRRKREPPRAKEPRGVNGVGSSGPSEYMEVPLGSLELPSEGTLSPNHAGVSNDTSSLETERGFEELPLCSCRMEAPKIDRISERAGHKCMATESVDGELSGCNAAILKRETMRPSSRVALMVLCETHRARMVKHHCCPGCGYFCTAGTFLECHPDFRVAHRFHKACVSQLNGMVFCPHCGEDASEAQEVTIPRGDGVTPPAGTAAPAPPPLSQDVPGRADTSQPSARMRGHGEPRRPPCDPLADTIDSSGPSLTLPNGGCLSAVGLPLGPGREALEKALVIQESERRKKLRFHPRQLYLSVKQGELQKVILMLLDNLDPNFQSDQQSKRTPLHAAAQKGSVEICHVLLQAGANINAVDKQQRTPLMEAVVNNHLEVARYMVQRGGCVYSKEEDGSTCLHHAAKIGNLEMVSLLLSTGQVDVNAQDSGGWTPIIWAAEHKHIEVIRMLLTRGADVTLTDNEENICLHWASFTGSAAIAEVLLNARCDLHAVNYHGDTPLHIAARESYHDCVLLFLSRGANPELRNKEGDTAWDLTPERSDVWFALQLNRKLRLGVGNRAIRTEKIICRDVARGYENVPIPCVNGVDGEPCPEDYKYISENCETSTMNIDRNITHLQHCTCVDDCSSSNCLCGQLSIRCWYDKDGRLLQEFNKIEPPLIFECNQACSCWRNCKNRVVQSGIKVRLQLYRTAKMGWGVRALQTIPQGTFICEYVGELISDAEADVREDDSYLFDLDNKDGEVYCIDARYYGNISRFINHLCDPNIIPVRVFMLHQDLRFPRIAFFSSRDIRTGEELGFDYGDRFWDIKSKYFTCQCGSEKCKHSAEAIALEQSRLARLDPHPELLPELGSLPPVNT

[4] = Metabolic stability in human liver microsomes assessed as compound remaining measured after 60 mins; format: ADME, Microsome; conditions: read-out: Stability
[5] = Metabolic stability in mouse liver microsomes assessed as compound remaining measured after 30 mins; format: ADME, Microsome; conditions: read-out: Stability
HUDEP-2 = assay: Induction of gamma-globin mRNA expression in human HUDEP-2 cells assessed as expression shift from adult-type beta-globin to fetal-type gamma-globin upto 1 uM by […] analysis; format: functional, cell-based
[6] = biological target: T1, Histone-lysine N-methyltransferase EHMT2; assay: Binding affinity to G9a (unknown origin) assessed as dissociation constant by SPR analysis
[7] = biological target: T2, Histone-lysine N-methyltransferase EHMT2 (Homo sapiens) (UniProt Q96KQ7); assay: Binding affinity to G9a (unknown origin) assessed as binding constant K(on) by SPR analysis
T2 sequence (whole entry): T1 sequence (Q96KQ7 whole entry)

[8] = Metabolic stability in mouse liver microsomes assessed as compound remaining measured after 60 mins; format: ADME, Microsome; conditions: read-out: Stability
[9] = biological target: T2, Histone-lysine N-methyltransferase EHMT2 (Homo sapiens); assay: Binding affinity to G9a (unknown origin) assessed as binding constant K(off) by SPR analysis
[10] = Metabolic stability in human liver microsomes assessed as compound remaining measured after 30 mins; format: ADME, Microsome; conditions: read-out: Stability

Compound	Papp [1] [nm/s]	solubility [2] [µM]	IC50 [3] [µM]	further results
CCCCC(NC(=O)c1[nH]c2c(c1C)C(=O)CC(C)(C)C2)C(=O)Nc1ccc(OC2CCN(C)CC2)nc1 (racemic)	49	> 200	0.065	–
CCCCC(NC(=O)c1[nH]c2c(c1C)C(=O)CC(C)(C)C2)C(=O)Nc1ccc(OCCN)nc1 (racemic)	4	> 200	0.074	–
CCCCC(NC(=O)c1[nH]c2c(c1C)C(=O)CC(C)(C)C2)C(=O)NCc1ccccc1 (racemic)	–	2.5 (≈ 1.06 µg/mL)	0.33	–
CCCCC(NC(=O)c1[nH]c2c(c1C)C(=O)CC(C)(C)C2)C(=O)Nc1ccc(OC2CCN(C)CC2)cc1 (racemic)	59	192 (≈ 100 µg/mL)	0.022	–
CCCCC(NC(=O)c1[nH]c2c(c1C)C(=O)CC(C)(C)C2)C(=O)Nc1ccc(CN2CCC(F)(F)CC2)cc1 (racemic)	–	5.7 (≈ 3.09 µg/mL)	0.93	–
CCCC[C@H](NC(=O)c1[nH]c2c(c1C)C(=O)CC(C)(C)C2)C(=O)NCc1ccc(CN(C)C)cc1	72	201 (≈ 96.6 µg/mL)	0.009	remaining at 1 h [4]: 30%; remaining at 0.5 h [5]: 78%; remaining at 1 h [8]: 65%; remaining at 0.5 h [10]: 52%
CCCC[C@H](NC(=O)c1[nH]c2c(c1C)C(=O)CC(C)(C)C2)C(=O)Nc1ccc(OC2CCN(C)CC2)nc1	81	200 (≈ 105 µg/mL)	0.044	remaining at 1 h [4]: 62%; remaining at 0.5 h [5]: 72%; Kd [6]: 0.17 µM; K [7]: 79000 M⁻¹ s⁻¹; remaining at 1 h [8]: 53%; K [9]: 0.013 s⁻¹; remaining at 0.5 h [10]: 80%
CCCCC(NC(=O)c1[nH]c2c(c1C)C(=O)CC(C)(C)C2)C(=O)Nc1cccnc1 (racemic)	290	> 200	–	–
CCCCC(NC(=O)c1[nH]c2c(c1C)C(=O)CC(C)(C)C2)C(=O)Nc1ccc(OCCNC)nc1 (racemic)	0.7	> 200	0.059	–
CCCCC(NC(=O)c1[nH]c2c(c1C)C(=O)CC(C)(C)C2)C(=O)NCc1ccc(CN(C)C)cc1 (racemic)	95	> 200	0.012	–
CCCCC(NC(=O)c1[nH]c2c(c1C)C(=O)CC(C)(C)C2)C(=O)Nc1ccc(CCN2CCC(F)(F)CC2)cc1 (racemic)	–	2.3 (≈ 1.28 µg/mL)	1.6	–
Cc1c(C(=O)N[C@@H](CCC2CC2)C(=O)Nc2ccc(C#N)cc2)[nH]c2c1C(=O)CC(C)(C)C2	–	–	–	Kd [6]: 0.75 µM; K [7]: 16000 M⁻¹ s⁻¹; K [9]: 0.012 s⁻¹
CCCCC(NC(=O)c1[nH]c2c(c1C)C(=O)CC(C)(C)C2)C(=O)Nc1ccc(CN(C)C)cc1 (racemic)	–	–	0.042	–

Continued, in another order:

Papp [1] [nm/s]	solubility [2] [µM]	IC50 [3] [µM]	Compound	further results
93	200 (≈ 105 µg/mL)	0.024	CCCC[C@H](NC(=O)c1[nH]c2c(c1C)C(=O)CC(C)(C)C2)C(=O)Nc1ccc(OC2CCN(C)CC2)cc1	remaining at 1 h [4]: 37%; remaining at 0.5 h [5]: 72%; Activity (HUDEP-2): Active; Kd [6]: 0.12 µM; K [7]: 110000 M⁻¹ s⁻¹; remaining at 1 h [8]: 58%; K [9]: 0.013 s⁻¹; remaining at 0.5 h [10]: 57%
36	> 200	0.11	CCCCC(NC(=O)c1[nH]c2c(c1C)C(=O)CC(C)(C)C2)C(=O)Nc1ccc(OCCN(C)C)nc1 (racemic)	–
–	14 (≈ 7.32 µg/mL)	1	CCCCC(NC(=O)c1[nH]c2c(c1C)C(=O)CC(C)(C)C2)C(=O)Nc1ccc(CCN2CCOCC2)cc1 (racemic)	–
63	197 (≈ 103 µg/mL)	0.042	CCCCC(NC(=O)c1[nH]c2c(c1C)C(=O)CC(C)(C)C2)C(=O)Nc1ccc(CCN2CCCCC2)cc1 (racemic)	–
–	20 (≈ 8.19 µg/mL)	1.3	CCCCC(NC(=O)c1[nH]c2c(c1C)C(=O)CC(C)(C)C2)C(=O)Nc1ccccc1 (racemic)	–
21.2	37 (≈ 21.1 µg/mL)	2.8	CCCCC(NC(=O)c1[nH]c2c(c1C)C(=O)CC(C)(C)C2)C(=O)Nc1ccc(CCN2CCS(=O)(=O)CC2)cc1 (racemic)	–
359	7 (≈ 2.87 µg/mL)	–	CCCC[C@H](NC(=O)c1[nH]c2c(c1C)C(=O)CC(C)(C)C2)C(=O)Nc1ccccc1	remaining at 1 h [4]: 10%; remaining at 0.5 h [5]: 11%; remaining at 1 h [8]: 1.1%; remaining at 0.5 h [10]: 22%
127	189 (≈ 93.1 µg/mL)	0.044	CCCCC(NC(=O)c1[nH]c2c(c1C)C(=O)CC(C)(C)C2)C(=O)Nc1ccc(CN2CCCC2)cc1 (racemic)	–
